Test results taken from patent US9023789B2, “Amylin analogs and pharmaceutical compositions thereof” (Novo Nordisk A/S, priority 2012, dated 2015).
Like-named read-outs stand apart in the source and are kept apart here. Numbered stars: 1 amine (or outer) side, 2 acyl side, 3 side chain; on linkers, the order of the positions; unused ones are H or OH. Bridge positions count the residues as written; N and C are the ends. Side chains are listed from the residue outwards. Peptide text beside a SMILES is read from it. * marks the point of attachment. C20 diacid = O=C(O)CCCCCCCCCCCCCCCCCCC(=O)*; γGlu = O=C(O)[C@H](CCC(=O)[*:2])N[*:1]; AEEA = NCCOCCOCC(=O)O

Experiments:
[1] = ASSAY (IV) determination of solubility; format: physicochemical
Method in brief: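 Polypeptide stock in water ([…]) was mixed 1:1 with 100 mM buffers: glycylglycine at pH 3.0, 4.0, 5.0 and bistrispropane at pH 6.0, 6.5, 7.0, 7.5, 8.0. After 18 hours at room temperature, samples were centrifuged and polypeptide concentration measured by UPLC.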

[2] = target: T1, human amylin receptor (membranes from Amylin 3(a)/CRE-luc cells) (Homo sapiens, UniProt O60896+P30988); assay: ASSAY (V) binding to the human amylin receptor (SPA, 125I-rat amylin);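 also: competition binding of cell membranes (35 ng/µL) mixed with SPA beads in 384-well plates at 40 µL total volume, read by scintillation counting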
T1 construct: expressed in transfected cells
T1 sequence (P30988 25-474): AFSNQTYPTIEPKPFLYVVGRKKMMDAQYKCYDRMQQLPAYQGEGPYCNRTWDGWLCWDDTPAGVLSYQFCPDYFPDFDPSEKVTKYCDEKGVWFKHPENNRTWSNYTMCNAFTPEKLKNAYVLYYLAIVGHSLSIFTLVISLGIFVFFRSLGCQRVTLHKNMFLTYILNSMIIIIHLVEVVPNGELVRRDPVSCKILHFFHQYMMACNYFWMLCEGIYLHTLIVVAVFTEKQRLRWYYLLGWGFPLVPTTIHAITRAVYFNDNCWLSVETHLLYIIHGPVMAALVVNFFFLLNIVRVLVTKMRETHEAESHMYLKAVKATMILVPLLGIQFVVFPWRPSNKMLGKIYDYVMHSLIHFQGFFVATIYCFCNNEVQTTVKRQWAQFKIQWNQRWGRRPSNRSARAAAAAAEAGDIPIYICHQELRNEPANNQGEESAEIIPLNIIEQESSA
T1 sequence (O60896 24-148 partner): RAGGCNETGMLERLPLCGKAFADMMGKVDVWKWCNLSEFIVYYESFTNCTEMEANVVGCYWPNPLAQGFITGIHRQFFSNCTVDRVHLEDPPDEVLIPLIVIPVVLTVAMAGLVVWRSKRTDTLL

[3] = target: T2, rat calcitonin receptor (Rattus norvegicus, UniProt P32214); assay: ASSAY (VIII) binding to the rat calcitonin receptor; settings: Table 7, read-out: rCTR bind IC50
T2 construct: expressed in transfected cells; host or cells: BHK tk'ts 13 (transient, FuGENE 6), membranes
T2 sequence (P32214 25-479 isoform P32214-2 limits assumed): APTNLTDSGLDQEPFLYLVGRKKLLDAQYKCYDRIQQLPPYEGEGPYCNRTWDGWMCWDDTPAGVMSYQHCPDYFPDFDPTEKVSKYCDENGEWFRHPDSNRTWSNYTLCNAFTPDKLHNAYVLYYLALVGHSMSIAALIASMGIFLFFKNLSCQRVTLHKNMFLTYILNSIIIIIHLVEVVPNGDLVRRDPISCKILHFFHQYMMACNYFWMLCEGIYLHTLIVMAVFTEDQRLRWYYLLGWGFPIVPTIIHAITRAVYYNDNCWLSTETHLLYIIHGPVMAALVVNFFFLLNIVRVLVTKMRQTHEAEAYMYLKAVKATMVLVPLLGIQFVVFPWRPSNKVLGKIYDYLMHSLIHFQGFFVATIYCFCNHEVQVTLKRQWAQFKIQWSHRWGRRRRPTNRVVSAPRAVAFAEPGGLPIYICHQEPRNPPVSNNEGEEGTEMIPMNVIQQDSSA
Method in brief: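 Transfect BHK tk′ts 13 cells transiently with rat calcitonin receptor, culture in DMEM containing 10% FBS, collect cells about 48 hours later, then prepare membranes.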

[4] = target: T3, rat amylin receptor (rat calcitonin receptor + rat RAMP 3) (Rattus norvegicus, UniProt P32214+Q9JJ73); assay: ASSAY (VI) binding to the rat amylin receptor; settings: for IC50: binding to rat amylin receptor, read-out: rAmylin-R bind IC50
T3 construct: expressed in transfected cells; host or cells: BHK tk'ts 13 (transient, FuGENE 6), membranes
T3 sequence (P32214 25-479 isoform P32214-2 limits assumed): T2 sequence (P32214 25-479 isoform P32214-2 limits assumed)
T3 sequence (Q9JJ73 23-147 partner): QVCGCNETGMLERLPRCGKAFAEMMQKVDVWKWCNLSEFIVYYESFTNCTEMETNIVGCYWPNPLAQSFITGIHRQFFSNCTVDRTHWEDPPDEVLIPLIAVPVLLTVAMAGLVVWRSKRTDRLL
Method in brief: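 Binding to the rat amylin receptor was determined with membrane preparations. The receptor was expressed by transiently transfecting BHK tk′ts 13 cells with rat calcitonin receptor, using FuGENE® 6 (Roche) according to the manufacturer's recommendations. Roughly 48 hours later the cells were harvested and their membranes isolated.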

[5] = bistrispropane buffer, pH 6.5, read-out: Solubility pH 6.5 Concentration
[6] = bistrispropane buffer, pH 7.5, read-out: Solubility pH 7.5 Concentration
[7] = bistrispropane buffer, pH 6.0, read-out: Solubility pH 6.0 Concentration
[8] = bistrispropane buffer, pH 7.0, read-out: Solubility pH 7.0 Concentration
[9] = bistrispropane buffer, pH 8.0, read-out: Solubility pH 8.0 Concentration
[10] = glycylglycine buffer, pH 3.0, read-out: Solubility pH 3.0 Concentration
[11] = glycylglycine buffer, pH 4.0, read-out: Solubility pH 4.0 Concentration
[12] = glycylglycine buffer, pH 5.0, read-out: Solubility pH 5.0 Concentration
[13] = Table 5, selectivity, hCTR bind IC50 / hAmylin-R bind IC50
[14] = Table 5a, selectivity, hCTR bind IC50 / hAmylin-R bind IC50
[15] = Table 5b, selectivity, hCTR bind IC50 / hAmylin-R bind IC50
[16] = Table 5c, selectivity, hCTR bind IC50 / hAmylin-R bind IC50
[17] = Table 7, human binding selectivity, included for comparison
[18] = Table 7a (preferred compounds), human binding selectivity, included for comparison
[19] = ratio of human calcitonin receptor binding IC50 to human amylin receptor binding IC50
[20] = Table 7, rat binding selectivity, rCTR IC50 / rAmylin-R IC50
[21] = Table 7a (preferred compounds), rat binding selectivity, rCTR IC50 / rAmylin-R IC50
[22] = ratio of rCTR bind IC50 to rAmylin-R bind IC50

Compound	solubility at 18 h [1, 5] [µM]	solubility at 18 h [1, 6] [µM]	solubility at 18 h [1, 7] [µM]	solubility at 18 h [1, 8] [µM]	solubility at 18 h [1, 9] [µM]	solubility at 18 h [1, 10] [µM]	solubility at 18 h [1, 11] [µM]	solubility at 18 h [1, 12] [µM]	Ratio hCT/hAmylin binding [2, 13]	Ratio hCT/hAmylin binding [2, 14]	Ratio hCT/hAmylin binding [2, 15]	Ratio hCT/hAmylin binding [2, 16]	Ratio hCT/hAmylin binding [2, 17]	Ratio hCT/hAmylin binding [2, 18]	Ratio hCT/hAmylin binding [2, 19]	IC50 [3] [nM]	IC50 ([4]; Table 7) [nM]	Ratio rCT/rAmylin binding [4, 20]	Ratio rCT/rAmylin binding [4, 21]	Ratio rCT/rAmylin binding [4, 22]	further results
CC[C@H](C)[C@H](NC(=O)[C@H](C)NC(=O)CNC(=O)[C@H](Cc1ccccc1)NC(=O)[C@H](CC(N)=O)NC(=O)[C@@H]1CCCN1C(=O)[C@H](CO)NC(=O)[C@H](CO)NC(=O)[C@H](Cc1c[nH]cn1)NC(=O)[C@H](CCCNC(=N)N)NC(=O)[C@H](CC(C)C)NC(=O)[C@H](Cc1ccccc1)NC(=O)[C@H](CCCNC(=N)N)NC(=O)[C@H](C)NC(=O)[C@H](CC(C)C)NC(=O)[C@H](CCCNC(=N)N)NC(=O)[C@H](CCC(N)=O)NC(=O)[C@@H](NC(=O)[C@H](C)NC(=O)[C@@H]1CSSC[C@H](NC(=O)[C@@H](N)CCCCNC(=O)COCCOCCNC(=O)CC[C@H](NC(=O)CCCCCCCCCCCCCCCCCCC(=O)O)C(=O)O)C(=O)N[C@@H](CC(N)=O)C(=O)N[C@@H]([C@@H](C)O)C(=O)N[C@@H](C)C(=O)N[C@@H]([C@@H](C)O)C(=O)N1)[C@@H](C)O)C(=O)N1CCC[C@H]1C(=O)N[C@@H](CO)C(=O)N[C@@H](CO)C(=O)N[C@H](C(=O)N[C@@H](CC(N)=O)C(=O)N[C@H](C(=O)NCC(=O)N[C@@H](CO)C(=O)N[C@@H](CC(N)=O)C(=O)N[C@H](C(=O)N[C@@H](Cc1ccc(O)cc1)C(N)=O)[C@@H](C)O)C(C)C)[C@@H](C)O [Example 82] (H-K([AEEA-γGlu-C20 diacid])CNTATCATQRLARFLRHSSPNFGAIPSSTNVGSNTY-NH2; disulfide 2-7; N-terminus assumed)	≥ 200	≥ 200	≥ 200	≥ 200	≥ 200	≥ 200	≥ 200	≥ 200	139.6	139.6	139.6	139.6	139.6	139.6	139.6	143	1.64	87.0	87.0	87.0	IC50 ([2]; Table 4, read-out: hAmylin-R bind IC50): 0.636 nM
CC[C@H](C)[C@H](NC(=O)[C@H](C)NC(=O)CNC(=O)[C@H](Cc1ccccc1)NC(=O)[C@H](CC(N)=O)NC(=O)[C@@H]1CCCN1C(=O)[C@H](CO)NC(=O)[C@H](CO)NC(=O)[C@H](Cc1c[nH]cn1)NC(=O)[C@H](CCCNC(=N)N)NC(=O)[C@H](CC(C)C)NC(=O)[C@H](Cc1ccccc1)NC(=O)[C@H](CCCNC(=N)N)NC(=O)[C@H](C)NC(=O)[C@H](CC(C)C)NC(=O)[C@H](CCCNC(=N)N)NC(=O)[C@H](CCC(N)=O)NC(=O)[C@@H](NC(=O)[C@H](C)NC(=O)[C@@H]1CSSC[C@H](NC(=O)[C@@H](N)CCCCNC(=O)CC[C@H](NC(=O)CCCCCCCCCCCCCCCCCCC(=O)O)C(=O)O)C(=O)N[C@@H](CC(N)=O)C(=O)N[C@@H]([C@@H](C)O)C(=O)N[C@@H](C)C(=O)N[C@@H]([C@@H](C)O)C(=O)N1)[C@@H](C)O)C(=O)N1CCC[C@H]1C(=O)N[C@@H](CO)C(=O)N[C@@H](CO)C(=O)N[C@H](C(=O)N[C@@H](CC(N)=O)C(=O)N[C@H](C(=O)NCC(=O)N[C@@H](CO)C(=O)N[C@@H](CC(N)=O)C(=O)N[C@H](C(=O)N[C@@H](Cc1ccc(O)cc1)C(N)=O)[C@@H](C)O)C(C)C)[C@@H](C)O [Example 83]	≥ 200	≥ 200	≥ 200	≥ 200	≥ 200	≥ 200	≥ 200	≥ 200	145.6	145.6	145.6	145.6	145.6	145.6	145.6	140	2.83	49.7	49.7	49.7	
